Patent US12692238B2, “Substituted pyridazinone herbicides” (FMC CORPORATION, priority 2020, dated 2026)

Tests used:
Type in all cases: in vivo
[1] = tested on: sedge, umbrella (small-flower umbrella sedge, Cyperus difformis); experiment: Test B flooded paddy test, sedge, umbrella; conditions: 250 g ai/ha, Flood; visually evaluated after 10 to 14 days
Description: (§1) Plant species in the flooded paddy test selected from barnyardgrass (Echinochloa crus-galli), ducksalad (Heteranthera limosa), rice (Oryza sativa), and sedge, umbrella (small-flower umbrella sedge, Cyperus difformis) were grown to the 2-leaf stage for testing. At time of treatment, test pots were flooded to 3 cm above the soil surface, treated by application of test compounds directly to the paddy water, and then maintained at that water depth for the duration of the test. Treated plants and controls were maintained in a greenhouse for 10 to 14 days, after which time all species were compared to controls and visually evaluated. Plant response ratings, summarized in Table B, are based on a scale of 0 to 100 where 0 is no effect and 100 is complete control. A dash (-) response means no test result.

[2] = tested on: galium (catchweed bedstraw, Galium aparine); experiment: Test A postemergence, galium; conditions: 10 days
Source text: (§2) Seeds of plant species selected from barnyardgrass (Echinochloa crus-galli), blackgrass (Alopecurus myosuroides), corn (Zea mays), foxtail, giant (giant foxtail, Setaria faberi), foxtail, green (green foxtail, Setaria viridis), goosegrass (Eleusine indica), kochia (Bassia scoparia), oat, wild (wild oat, Avena fatua), palmer amaranth (pigweed, palmer, Amaranthus palmeri), redroot pigweed (Amaranthus retroflexus), ragweed (common ragweed, Ambrosia artemisiifolia), ryegrass, Italian (Italian ryegrass, Lolium multiflorum), and soybean (Glycine max) were planted into a blend of loam soil and sand and treated preemergence with a directed soil spray using test chemicals formulated in a non-phytotoxic solvent mixture which included a surfactant.
(§3) At the same time, plants selected from these crop and weed species and also wheat (Triticum aestivum), galium (catchweed bedstraw, Galium aparine) and horseweed (Erigeron canadensis) were planted in pots containing the same blend of loam soil and sand and treated with postemergence applications of test chemicals formulated in the same manner. Plants ranged in height from 2 to 10 cm and were in the one- to two-leaf stage for the postemergence treatment. Treated plants and untreated controls were maintained in a greenhouse for 10 days, after which time all treated plants were compared to untreated controls and visually evaluated for injury. Plant response ratings, summarized in Table A, are based on a 0 to 100 scale where 0 is no effect and 100 is complete control. A dash (-) response means no test result.

[3] = tested on: ryegrass, Italian (Italian ryegrass, Lolium multiflorum); experiment: Test A postemergence, ryegrass, Italian; conditions: 10 days
Source text: as §2, §3

[4] = tested on: barnyardgrass (Echinochloa crus-galli); experiment: Test A postemergence, barnyardgrass; conditions: 10 days
Source text: as §2, §3

[5] = tested on: barnyardgrass (Echinochloa crus-galli); experiment: Test B flooded paddy test, barnyardgrass; conditions: 250 g ai/ha, Flood; visually evaluated after 10 to 14 days
Description: as §1

[6] = tested on: blackgrass (Alopecurus myosuroides); experiment: Test A postemergence, blackgrass; conditions: 10 days
Source text: as §2, §3

[7] = tested on: wheat (Triticum aestivum); experiment: Test A postemergence, wheat; conditions: 10 days
Source text: as §2, §3

[8] = tested on: ducksalad (Heteranthera limosa); experiment: Test B flooded paddy test, ducksalad; conditions: 250 g ai/ha, Flood; visually evaluated after 10 to 14 days
Description: as §1

kochia (Bassia scoparia) [9] = experiment: Test A postemergence, kochia; conditions: 10 days
Source text: as §2, §3

corn (Zea mays) = experiment: Test A postemergence, corn; conditions: 10 days
Source text: as §2, §3

[10] = tested on: foxtail, giant (giant foxtail, Setaria faberi); experiment: Test A preemergence, foxtail, giant; conditions: 0 to 100 scale, 10 days
Source text: as §2, §3

[11] = tested on: foxtail, giant (giant foxtail, Setaria faberi); experiment: Test A postemergence, foxtail, giant; conditions: 10 days
Source text: as §2, §3

[12] = tested on: ryegrass, Italian (Italian ryegrass, Lolium multiflorum); experiment: Test A preemergence, ryegrass, Italian; conditions: 0 to 100 scale, 10 days
Source text: as §2, §3

[13] = tested on: redroot pigweed (Amaranthus retroflexus); experiment: Test A postemergence, redroot pigweed; conditions: 10 days
Source text: as §2, §3

kochia (Bassia scoparia) [14] = experiment: Test A preemergence, kochia; conditions: 0 to 100 scale, 10 days
Source text: as §2, §3

[15] = tested on: ragweed (common ragweed, Ambrosia artemisiifolia); experiment: Test A preemergence, ragweed; conditions: 0 to 100 scale, 10 days
Source text: as §2, §3

rice (Oryza sativa) = experiment: Test B flooded paddy test, rice; conditions: 250 g ai/ha, Flood; visually evaluated after 10 to 14 days
Description: as §1

[16] = tested on: redroot pigweed (Amaranthus retroflexus); experiment: Test A preemergence, redroot pigweed; conditions: 0 to 100 scale, 10 days
Source text: as §2, §3

[17] = tested on: ragweed (common ragweed, Ambrosia artemisiifolia); experiment: Test A postemergence, ragweed; conditions: 10 days
Source text: as §2, §3

[18] = tested on: barnyardgrass (Echinochloa crus-galli); experiment: Test A preemergence, barnyardgrass; conditions: 10 days
Source text: as §2, §3

[19] = 31 g ai/ha, postemergence, 0 to 100 scale (0 no effect, 100 complete control)
[20] = Postemergence, 125 g ai/ha, 0 to 100 scale

CC(=O)OCOc1c(Cl)nn(C)c(=O)c1-c1c2cc(C)ccc2cc2ccc(C)cc12 [Compound 23]
Plant response rating, Sedge, Umbrella (0 to 100 scale where 0 is no effect and 100 is complete control) [1]: 75 | Plant response rating, Galium [2, 19]: 70 | Plant response rating, Galium [2, 20]: 100 | Plant response rating, Ryegrass, Italian [3, 19]: 0 | Plant response rating, Ryegrass, Italian [3, 20]: 40 | Plant response rating, Barnyardgrass [4, 19]: 30 | Plant response rating, Barnyardgrass [4, 20]: 90 | Plant response rating, Barnyardgrass (0 to 100 scale where 0 is no effect and 100 is complete control) [5]: 60 | Plant response rating, Blackgrass [6, 19]: 40 | Plant response rating, Blackgrass [6, 20]: 20 | Plant response rating, Wheat [7, 19]: 0 | Plant response rating, Wheat [7, 20]: 0 | Plant response rating, Ducksalad (0 to 100 scale where 0 is no effect and 100 is complete control) [8]: 95 | Plant response rating, Kochia (kochia (Bassia scoparia) [9]; [19]): 20 | Plant response rating, Kochia (kochia (Bassia scoparia) [9]; [20]): 80 | Plant response rating, Corn (corn (Zea mays); [19]): 0 | Plant response rating, Corn (corn (Zea mays); [20]): 40 | Plant response rating, Foxtail, Giant ([10]; 31 g ai/ha): 0 | Plant response rating, Foxtail, Giant ([10]; 125 g ai/ha): 20 | Plant response rating, Foxtail, Giant [11, 19]: 0 | Plant response rating, Foxtail, Giant [11, 20]: 50 | Plant response rating, Ryegrass, Italian ([12]; 31 g ai/ha): 0 | Plant response rating, Ryegrass, Italian ([12]; 125 g ai/ha): 0 | Plant response rating, Pigweed, Redroot [13, 19]: 100 | Plant response rating, Pigweed, Redroot [13, 20]: 100 | Plant response rating, Kochia (kochia (Bassia scoparia) [14]; 31 g ai/ha): 60 | Plant response rating, Kochia (kochia (Bassia scoparia) [14]; 125 g ai/ha): 90 | Plant response rating, Ragweed ([15]; 31 g ai/ha): 40 | Plant response rating, Ragweed ([15]; 125 g ai/ha): 90 | Plant response rating, Rice (0 to 100 scale where 0 is no effect and 100 is complete control) (rice (Oryza sativa)): 0 | Plant response rating, Pigweed, Redroot ([16]; 31 g ai/ha): 100 | Plant response rating, Pigweed, Redroot ([16]; 125 g ai/ha): 100 | Plant response rating, Ragweed [17, 19]: 70 | Plant response rating, Ragweed [17, 20]: 100 | Plant response rating, Barnyardgrass ([18]; 31 g ai/ha, 0 to 100 scale): 30 | Plant response rating, Barnyardgrass ([18]; 125 g ai/ha, 0 to 100 scale (0 no effect, 100 complete control)): 80
